The target of one assay is Y641N EZH2 (Homo sapiens, UniProt Q15910, Y641N). The assay is described as follows: Y641N EZH2 assay: as EZH2 assay, with reconstituted H3K27Me2 oligonucleosomes as substrate. In kind it is biochemical.
For another assay, the target named is EZH2 (rPRC2) (Homo sapiens, UniProt Q15910). The assay is described as follows: EZH2 assay: rPRC2, biotinylated oligonucleosomes, 3H SAM methyl transfer (FlashPlate scintillation). In kind it is biochemical. Particulars: biotinylated oligonucleosome substrate. How it is done:
Assays were carried out by mixing rPRC2 together with biotinylated oligonucleosome substrates in the presence of the radio-labeled enzyme co-factor, S-adenosyl-1-methionine (^3H SAM) (Perkin Elmer) and monitoring the enzymatically mediated transfer of tritiated methyl groups from ^3H SAM to histone lysine residues. The amount of resulting tritiated methyl histone product was measured by first capturing the biotinylated oligonucleosomes in streptavidin (SAV) coated FlashPlates (Perkin Elmer), followed by a wash step to remove un-reacted ^3H SAM, and then counting on a TopCount NXT 384 well plate scintillation counter (Perkin Elmer). The final assay conditions for EZH2 were as follows: 50 mM Tris Buffer pH 8.5, 1 mM DTT, 69 μM Brij-35 detergent, 5.0 mM MgCl2, 0.1 mg/mL BSA, 0.2 μM ^3H SAM, 0.2 μM biotinylated oligonucleosomes, 3.6 μM H3K27 mc3 peptide and 2 nM EZH2.
A 12.5 μL volume of the HMT enzyme, H3K27me3 peptide and oligonucleosome substrate in assay buffer was added to each well of the assay plate using a Multidrop Combi (ThermoFisher). Compounds were pre-incubated with the enzyme for 20 min, followed by initiation of the methyltransferase reaction by addition of 12.5 μL of ^3H SAM in assay buffer (final volume=25 μL). The final concentrations of compounds ranged from a top default concentration of 80 μM down to 0.16 μM in ten 2-fold dilution steps. Reactions were carried out for 60 minutes and quenched with 20 μL per well of 1.96 mM SAH, 50 mM Tris pH 8.5, 200 mM EDTA. Stopped reactions were transferred to SAV coated Flashplates (Perkin Elmer), incubated for 120 min, washed with a plate washer, and then read on the TopCount NXT (1.0 min/well) to measure the amount of methyl histone product formed during the reaction.

Setting [1] is: Y641N EZH2 IC50, Y641N mutant EZH2, H3K27Me2 oligonucleosome substrate.
Where [2] appears, read: EZH2 IC50, wild-type EZH2 (rPRC2).
Where [3] appears, read: Y641N mutant EZH2, H3K27Me2 oligonucleosome substrate, read-out: Y641N EZH2 IC50.
Where [4] appears, read: wild-type EZH2 (rPRC2), read-out: EZH2 IC50.

Like-named read-outs stand apart in the source and are kept apart here.

Y641N EZH2, sequence (Q15910 whole entry Y641N): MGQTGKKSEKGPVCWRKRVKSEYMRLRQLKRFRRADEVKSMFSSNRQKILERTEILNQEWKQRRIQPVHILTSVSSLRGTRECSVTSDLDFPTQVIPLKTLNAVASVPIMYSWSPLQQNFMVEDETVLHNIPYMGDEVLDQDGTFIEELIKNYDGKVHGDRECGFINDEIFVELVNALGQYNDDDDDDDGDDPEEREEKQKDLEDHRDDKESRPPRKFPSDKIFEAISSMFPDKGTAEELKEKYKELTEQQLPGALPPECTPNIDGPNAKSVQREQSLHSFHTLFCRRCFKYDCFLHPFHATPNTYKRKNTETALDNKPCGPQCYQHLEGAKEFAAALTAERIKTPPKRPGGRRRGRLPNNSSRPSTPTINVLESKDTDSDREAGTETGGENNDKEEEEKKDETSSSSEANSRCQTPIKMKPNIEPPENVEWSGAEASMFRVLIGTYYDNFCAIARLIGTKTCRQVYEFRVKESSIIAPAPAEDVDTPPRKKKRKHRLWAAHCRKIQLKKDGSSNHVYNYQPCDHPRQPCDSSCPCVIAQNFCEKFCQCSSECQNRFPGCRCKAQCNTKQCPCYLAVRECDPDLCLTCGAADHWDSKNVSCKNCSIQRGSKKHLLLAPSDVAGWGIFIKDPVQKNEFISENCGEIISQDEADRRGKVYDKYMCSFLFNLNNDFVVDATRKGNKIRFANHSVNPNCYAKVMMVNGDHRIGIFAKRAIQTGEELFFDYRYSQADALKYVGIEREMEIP
Y641N EZH2, sequence (O75530 whole entry partner): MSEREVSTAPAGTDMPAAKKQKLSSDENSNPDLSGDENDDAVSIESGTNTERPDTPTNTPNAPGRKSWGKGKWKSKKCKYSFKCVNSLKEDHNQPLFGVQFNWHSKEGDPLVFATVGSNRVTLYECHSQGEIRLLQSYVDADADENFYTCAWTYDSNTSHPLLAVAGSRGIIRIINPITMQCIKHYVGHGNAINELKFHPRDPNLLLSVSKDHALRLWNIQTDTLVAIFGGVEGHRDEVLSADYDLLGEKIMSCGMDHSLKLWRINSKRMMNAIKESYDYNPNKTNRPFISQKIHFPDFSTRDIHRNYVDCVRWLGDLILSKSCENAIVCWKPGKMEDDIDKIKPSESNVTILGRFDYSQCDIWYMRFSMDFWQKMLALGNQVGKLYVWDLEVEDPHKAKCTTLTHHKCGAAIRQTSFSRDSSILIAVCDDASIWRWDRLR
Y641N EZH2, sequence (Q15022 whole entry partner): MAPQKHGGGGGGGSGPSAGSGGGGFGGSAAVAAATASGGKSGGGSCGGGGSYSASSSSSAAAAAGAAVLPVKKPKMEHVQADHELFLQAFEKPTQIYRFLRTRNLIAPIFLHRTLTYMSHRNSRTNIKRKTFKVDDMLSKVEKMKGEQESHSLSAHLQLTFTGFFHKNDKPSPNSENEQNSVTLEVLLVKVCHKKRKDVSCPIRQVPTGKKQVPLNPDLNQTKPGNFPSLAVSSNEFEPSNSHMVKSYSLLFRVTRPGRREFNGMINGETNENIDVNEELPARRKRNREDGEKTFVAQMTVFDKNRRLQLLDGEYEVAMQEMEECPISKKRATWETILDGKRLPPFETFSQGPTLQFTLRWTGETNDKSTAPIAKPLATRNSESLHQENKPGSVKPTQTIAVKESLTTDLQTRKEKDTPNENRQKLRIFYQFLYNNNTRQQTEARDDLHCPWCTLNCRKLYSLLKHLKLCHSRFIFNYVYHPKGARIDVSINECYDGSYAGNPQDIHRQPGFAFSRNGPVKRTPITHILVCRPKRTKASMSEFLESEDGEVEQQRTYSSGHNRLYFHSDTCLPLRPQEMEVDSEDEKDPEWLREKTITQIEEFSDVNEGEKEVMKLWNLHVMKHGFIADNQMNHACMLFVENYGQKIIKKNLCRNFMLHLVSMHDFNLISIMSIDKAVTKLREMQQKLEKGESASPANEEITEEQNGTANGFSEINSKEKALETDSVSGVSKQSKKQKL
EZH2 (rPRC2), sequence (Q15910 whole entry): as the sequence (Q15910 whole entry Y641N) above, with N641Y counted along it
EZH2 (rPRC2), sequence (O75530 whole entry partner): as the sequence (O75530 whole entry partner) above
EZH2 (rPRC2), sequence (Q15022 whole entry partner): as the sequence (Q15022 whole entry partner) above

Regarding `COc1nccc(C(C)n2c(C)c(C(=O)NCc3c(OC)cc(C)[nH]c3=O)c3cccnc32)n1` (racemic) [Compound 232, (±)-N-((4-methoxy-6-methyl-2-oxo-1,2-dihydropyridin-3-yl)methyl)-1-(1-(2-methoxypyrimidin-4-yl)ethyl)-2-methyl-1H-pyrrolo[2,3-b]pyridine-3-carboxamide], the IC50 on Y641N EZH2 (setting [1]) lay in the range of 1000 to 10000 nM; on EZH2 (rPRC2) (setting [2]), 100 to 1000 nM.
As for `COc1nccc(C(C)n2c(C)c(C(=O)NCc3c(C)cc(C)[nH]c3=O)c3cccnc32)n1` (racemic) [Compound 233, (±)-N-((4,6-dimethyl-2-oxo-1,2-dihydropyridin-3-yl)methyl)-1-(1-(2-methoxypyrimidin-4-yl)ethyl)-2-methyl-1H-pyrrolo[2,3-b]pyridine-3-carboxamide], the results for the IC50 on Y641N EZH2 (setting [1]) and against EZH2 (rPRC2) (setting [2]) were 1000 to 10000 nM and 100 to 1000 nM, respectively.
On to `CCOc1cc(C)[nH]c(=O)c1CNC(=O)c1c(C)n(C(C)COC)c2ncccc12` (racemic) [Compound 235, (±)-N-((4-ethoxy-6-methyl-2-oxo-1,2-dihydropyridin-3-yl)methyl)-1-(1-methoxypropan-2-yl)-2-methyl-1H-pyrrolo[2,3-b]pyridine-3-carboxamide], for which the values for the IC50 against Y641N EZH2 (setting [1]) and on EZH2 (rPRC2) (setting [2]) were 1000 to 10000 nM and 100 to 1000 nM, respectively.
The matching figures for `Cc1cc(C)c(CNC(=O)c2c(C)n(C(C)CN3CCOCC3)c3ncccc23)c(=O)[nH]1` (racemic) [Compound 237, (±)-N-((4,6-dimethyl-2-oxo-1,2-dihydropyridin-3-yl)methyl)-2-methyl-1-(1-morpholinopropan-2-yl)-1H-pyrrolo[2,3-b]pyridine-3-carboxamide]: 1000 to 10000 nM and 100 to 1000 nM.
For the compound `Cc1cc(C)c(CNC(=O)c2c(C)n(C(C)Cn3ccccc3=O)c3ncccc23)c(=O)[nH]1` (racemic) [Compound 249, (±)-N-((4,6-dimethyl-2-oxo-1,2-dihydropyridin-3-yl)methyl)-2-methyl-1-(1-(2-oxopyridin-1(2H)-yl)propan-2-yl)-1H-pyrrolo[2,3-b]pyridine-3-carboxamide], the results for the IC50 on Y641N EZH2 (setting [3]) and on EZH2 (rPRC2) (setting [4]) were 1000 to 10000 nM and 100 to 1000 nM, respectively.
The matching figures for `COc1cc(C)[nH]c(=O)c1CNC(=O)c1c(C)n(C(C)COc2ccccn2)c2ncccc12` (racemic) [Compound 251, (±)-N-((4-methoxy-6-methyl-2-oxo-1,2-dihydropyridin-3-yl)methyl)-2-methyl-1-(1-(pyridine-2-yloxy)propan-2-yl)-1H-pyrrolo[2,3-b]pyridine-3-carboxamide]: 100 to 1000 nM and 100 to 1000 nM.
With `CCOc1cc(C)[nH]c(=O)c1CNC(=O)c1c(C)n(C(C)c2ccccc2)c2cnccc12` (racemic) [Compound 255, (±)-N-((4-ethoxy-6-methyl-2-oxo-1,2-dihydropyridin-3-yl)methyl)-2-methyl-1-(1-phenylethyl)-1H-pyrrolo[2,3-c]pyridine-3-carboxamide], the IC50 against Y641N EZH2 (setting [1]) was 1000 to 10000 nM; at EZH2 (rPRC2) (setting [2]), less than 100 nM.
The matching figures for `COCC(C)n1c(C)c(C(=O)NCc2c(OC)cc(C3CC3)[nH]c2=O)c2cccnc21` (racemic) [Compound 260, (±)-N-((6-cyclopropyl-4-methoxy-2-oxo-1,2-dihydropyridin-3-yl)methyl)-1-(1-methoxypropan-2-yl)-2-methyl-1H-pyrrolo[2,3-b]pyridine-3-carboxamide]: 1000 to 10000 nM and 100 to 1000 nM.
As to `Cc1cc(C)c(CNC(=O)c2c(C)n(C(C)CN3CCCCC3)c3ncccc23)c(=O)[nH]1` (racemic) [Compound 272, (±)-N-((4,6-dimethyl-2-oxo-1,2-dihydropyridin-3-yl)methyl)-2-methyl-1-(1-(piperidin-1-yl)propan-2-yl)-1H-pyrrolo[2,3-b]pyridine-3-carboxamide], the “Y641N EZH2 IC50” value at Y641N EZH2 (Y641N mutant EZH2, H3K27Me2 oligonucleosome substrate) is on record as “*(10 μM)”. For the same compound, on EZH2 (rPRC2) (setting [2]), the IC50 is 1000 to 10000 nM.
Take `CCC(OC)C(C)n1c(C)c(C(=O)NCc2c(C)cc(C)[nH]c2=O)c2ccccc21` (racemic) [Compound 275, (±)-N-((4,6-dimethyl-2-oxo-1,2-dihydropyridin-3-yl)methyl)-1-(3-methoxypentan-2-yl)-2-methyl-1H-indole-3-carboxamide]: the IC50 against Y641N EZH2 (setting [1]) and against EZH2 (rPRC2) (setting [2]) was less than 100 nM in each case.
Take `COc1cc(C)[nH]c(=O)c1CNC(=O)c1c(C)n(C(C)C(C)(C)OC)c2ccccc12` (racemic) [Compound 277, (±)-1-(3-methoxy-3-methylbutan-2-yl)-N-((4-methoxy-6-methyl-2-oxo-1,2-dihydropyridin-3-yl)methyl)-2-methyl-1H-indole-3-carboxamide]: the IC50 at Y641N EZH2 (setting [1]) and at EZH2 (rPRC2) (setting [2]) was less than 100 nM each time.
Take `CCc1cc(OC)c(CNC(=O)c2c(C)n(C(C)COC)c3ncccc23)c(=O)[nH]1` (racemic) [Compound 280, (±)-N-((6-ethyl-4-methoxy-2-oxo-1,2-dihydropyridin-3-yl)methyl)-1-(1-methoxypropan-2-yl)-2-methyl-1H-pyrrolo[2,3-b]pyridine-3-carboxamide]: the IC50 lay within 1000 to 10000 nM at Y641N EZH2 (setting [1]) and 100 to 1000 nM against EZH2 (rPRC2) (setting [2]).
Turning to `CCOC(C)C(C)n1c(C)c(C(=O)NCc2c(OC)cc(C)[nH]c2=O)c2ccccc21` (racemic) [Compound 290, (±)-1-(3-ethoxybutan-2-yl)-N-((4-methoxy-6-methyl-2-oxo-1,2-dihydropyridin-3-yl)methyl)-2-methyl-1H-indole-3-carboxamide], the IC50 at Y641N EZH2 (setting [1]) is 100 to 1000 nM; against EZH2 (rPRC2) (setting [2]), less than 100 nM.
In the case of `COCC(C)n1c(C)c(C(=O)NCc2c(OC)cc(C)[nH]c2=O)c2ccc(N3CCNCC3)nc21` (racemic) [Compound 295, (±)-N-((4-methoxy-6-methyl-2-oxo-1,2-dihydropyridin-3-yl)methyl)-1-(1-methoxypropan-2-yl)-2-methyl-6-(piperazin-1-yl)-1H-pyrrolo[2,3-b]pyridine-3-carboxamide], the IC50 on Y641N EZH2 (setting [3]) lay within 1000 to 10000 nM; at EZH2 (rPRC2) (setting [4]), 100 to 1000 nM.
Take `COCCOC(C)C(C)n1c(C)c(C(=O)NCc2c(OC)cc(C)[nH]c2=O)c2cccnc21` (racemic) [Compound 297, (±)-N-((4-methoxy-6-methyl-2-oxo-1,2-dihydropyridin-3-yl)methyl)-1-(3-(2-methoxyethoxy)butan-2-yl)-2-methyl-1H-pyrrolo[2,3-b]pyridine-3-carboxamide 2,2,2-trifluoroacetate]: the IC50 is 100 to 1000 nM against Y641N EZH2 (setting [1]) and less than 100 nM on EZH2 (rPRC2) (setting [2]).
The matching figures for `COc1cc(C)[nH]c(=O)c1CNC(=O)c1c(C)n(C(C)CC#N)c2ncccc12` (racemic) [Compound 301, (±)-1-(1-cyanopropan-2-yl)-N-((4-methoxy-6-methyl-2-oxo-1,2-dihydropyridin-3-yl)methyl)-2-methyl-1H-pyrrolo[2,3-b]pyridine-3-carboxamide]: 100 to 1000 nM and less than 100 nM.
The matching figures for `COCC(C)n1c(C)c(C(=O)NCc2c(OC)cc(C)[nH]c2=O)c2ccc(C(F)(F)F)nc21` (racemic) [Compound 309, (±)-N-((4-methoxy-6-methyl-2-oxo-1,2-dihydropyridin-3-yl)methyl)-1-(1-methoxypropan-2-yl)-2-methyl-6-(trifluoromethyl)-1H-pyrrolo[2,3-b]pyridine-3-carboxamide]: 1000 to 10000 nM and 100 to 1000 nM.

The record behind these values is patent US9371331B2, “Modulators of methyl modifying enzymes, compositions and uses thereof” (Constellation Pharmaceuticals, Inc., priority 2012, dated 2016).
